US20100168228A1, “NOVEL CHEMOTHERAPEUTIC AGENTS AGAINST INFLAMMATION AND CANCER” (RELIANCE LIFE SCIENCES PVT. LTD., priority 2006, published 2010)

Tested on: U937 cells
Assay: Cell cycle analysis, U937
Assay type: cell-based, human
Conditions: 24 h
Procedure: FIG. 17: Differential effect of compound 27 on the cell cycle distribution in U937 cell line. Cells were treated with different concentration of the compound for 24 h and after staining with PI, cell cycle distribution was analyzed using Flow Cytometer. The data indicates the percentage of cells in each phase of the cell cycle.
Cell Cycle Analysis: Cells (log phase culture) were treated with vehicles alone (similar volumes of DMSO) or with the compound (various concentrations) to be tested for 24 h. Untreated cells were also included in this experiment for comparison. After treatments, the cells were harvested and washed with cold PBS. Cells were then resuspended in cold PBS (300 μl) and 100% chilled ethanol (700 μl), vortexed, and incubated at room temperature for 1 h. Samples were centrifuged at 200×g for 5 minutes and the supernatant was removed. A solution containing propidium iodide (100 μg/ml) and RNase A (1 mg/ml) was added to the samples and incubated for 1 h at room temperature. Samples were then transferred to 12×75 mm polystyrene tubes and analyzed on flow cytometer. Flow cytometry analyses were done on FACSCalibur (Becton Dickinson, San Jose, Calif.) and data were analyzed using CellQuest analysis software.

COc1cc([C@@H]2Oc3c(OC)cc(/C=C/C(=O)O)cc3[C@H]2C(=O)O)ccc1O [compound 27, 5-[(E)-2-carboxyvinyl]-2β-(4-hydroxy-3-methoxyphenyl)-7-methoxy-2,3-dihydro-1-benzofuran-3α-carboxylic acid]
sub G1 population (U937, 10 μM): ~30% | proportion of cells in the S phase (U937, 5 and 10 μM, increase from-to): 26%-35% | proportion of cells in the G2/M phase (U937, 100, 500, 5000, 10000 nM): no significant increase in the proportion of cells in the G2/M phase | sub G1 population (U937, 100 and 500 nM): no increase
